Values of other authors as cited in patent US11169101B2, “Oligosaccharide compositions and methods of use thereof” (Kaleido Biosciences, Inc., priority 2018, dated 2021).

Conditions: administered in combination with lactulose

SMILES: CO[C@H]1/C=C/O[C@@]2(C)Oc3c(C)c(O)c4c(O)c(c5c(nc6cc(C)ccn65)c4c3C2=O)NC(=O)/C(C)=C\C=C\[C@H](C)[C@H](O)[C@@H](C)[C@@H](O)[C@@H](C)[C@H](OC(C)=O)[C@@H]1C [rifaximin]
- reduction of episodes of OHE: approximately 50%
